Test results published in ChEMBL document CHEMBL4321828, “Recent developments on (-)-colchicine derivatives: Synthesis and structure-activity relationship” (Eur J Med Chem, 2020).
One block for each molecule: values may come before it.

How the values were obtained:
COLO 205 = experiment: Antiproliferative activity against human COLO205 cells assessed as reduction in cell viability incubated for 48 hrs by MTT assay; type: functional, cell-based; conditions: COLO 205, 48 h
[1] = target: ATP-dependent translocase ABCB1 (Homo sapiens, UniProt P08183); experiment: Induction of P-gp in human LS180 cells assessed as […] in intracellular accumulation of Rh123 at 100 nM using Rho123 as substrate preincubated for 48 hrs followed by addition of Rh123 and measured after 90 mins by fluorescence based assay relative to control; type: cell-based; conditions: ls180, 48 h preincubation, then 1.5 h with Rh123, 0.1 µM
Chain of ATP-dependent translocase ABCB1 (P08183 whole entry): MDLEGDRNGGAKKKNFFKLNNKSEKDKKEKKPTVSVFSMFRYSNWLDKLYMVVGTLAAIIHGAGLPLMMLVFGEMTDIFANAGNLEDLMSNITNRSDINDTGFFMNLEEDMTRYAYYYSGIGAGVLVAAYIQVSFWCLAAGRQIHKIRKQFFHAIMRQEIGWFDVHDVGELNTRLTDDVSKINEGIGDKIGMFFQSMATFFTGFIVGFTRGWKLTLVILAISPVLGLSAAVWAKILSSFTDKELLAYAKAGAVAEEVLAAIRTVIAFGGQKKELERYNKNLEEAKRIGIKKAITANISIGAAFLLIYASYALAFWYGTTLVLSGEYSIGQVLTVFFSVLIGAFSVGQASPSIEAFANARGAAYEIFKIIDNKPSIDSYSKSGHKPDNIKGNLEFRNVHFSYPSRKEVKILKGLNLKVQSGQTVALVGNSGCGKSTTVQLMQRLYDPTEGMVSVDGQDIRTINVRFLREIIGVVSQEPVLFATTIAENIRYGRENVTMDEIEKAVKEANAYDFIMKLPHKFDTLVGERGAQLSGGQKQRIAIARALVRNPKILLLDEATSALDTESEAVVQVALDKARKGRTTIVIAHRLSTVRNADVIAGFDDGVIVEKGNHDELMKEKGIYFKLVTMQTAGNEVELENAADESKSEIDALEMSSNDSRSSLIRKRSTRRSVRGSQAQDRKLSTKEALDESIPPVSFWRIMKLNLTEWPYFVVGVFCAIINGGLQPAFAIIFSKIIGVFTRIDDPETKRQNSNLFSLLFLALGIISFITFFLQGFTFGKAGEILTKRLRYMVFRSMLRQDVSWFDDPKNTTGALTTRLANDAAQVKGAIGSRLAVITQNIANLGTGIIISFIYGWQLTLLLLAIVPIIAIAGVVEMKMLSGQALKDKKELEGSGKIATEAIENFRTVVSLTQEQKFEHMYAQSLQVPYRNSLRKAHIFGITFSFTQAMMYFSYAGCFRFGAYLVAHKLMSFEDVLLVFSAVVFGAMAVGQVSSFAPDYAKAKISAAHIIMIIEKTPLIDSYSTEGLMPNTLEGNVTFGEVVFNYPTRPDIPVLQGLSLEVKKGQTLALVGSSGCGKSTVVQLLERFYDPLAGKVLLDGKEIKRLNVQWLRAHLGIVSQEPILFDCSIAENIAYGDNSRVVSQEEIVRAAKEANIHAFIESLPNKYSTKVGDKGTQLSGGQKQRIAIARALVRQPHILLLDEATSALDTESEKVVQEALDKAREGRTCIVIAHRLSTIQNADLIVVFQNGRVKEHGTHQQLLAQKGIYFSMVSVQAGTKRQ

HCT-116 = experiment: Antiproliferative activity against human HCT116 cells assessed as reduction in cell viability incubated for 48 hrs by MTT assay; type: functional, cell-based; conditions: HCT-116, 48 h
MDA-MB-231 = experiment: Antiproliferative activity against human MDA-MB-231 cells assessed as reduction in cell viability; type: functional, cell-based
DLD-1 = experiment: Antiproliferative activity against human DLD1 cells assessed as reduction in cell viability; type: functional, cell-based
LoVo = experiment: Antiproliferative activity against human LoVo cells assessed as reduction in cell viability; type: functional, cell-based
MCF7 [2] = experiment: Antiproliferative activity against human MCF7 cells assessed as reduction in cell viability; type: functional, cell-based
KB 3-1 = experiment: Antiproliferative activity against human KB3-1 cells assessed as reduction in cell viability after 96 hrs by methylene blue staining based spectrophotometric method; type: functional; conditions: KB 3-1, 96 h
[3] = Antiproliferative activity against human KB-8-5-11 cells assessed as reduction in cell viability after 96 hrs by methylene blue staining based spectrophotometric method; type: functional
Bel-7402 = experiment: Antiproliferative activity against human Bel7402 cells assessed as reduction in cell viability by MTT assay; type: functional, cell-based
A2780 = experiment: Antiproliferative activity against human A2780 cells assessed as reduction in cell viability by MTT assay; type: functional, cell-based
A549 [4] = experiment: Antiproliferative activity against human A549 cells assessed as reduction in cell viability by MTT assay; type: functional, cell-based
MCF7 [5] = experiment: Antiproliferative activity against human MCF7 cells assessed as reduction in cell viability by MTT assay; type: functional, cell-based
HCT-15 = experiment: Antiproliferative activity against human HCT15 cells assessed as reduction in cell viability incubated for 24 hrs by SRB assay; type: functional, cell-based; conditions: HCT-15, 24 h
SK-OV-3 = experiment: Antiproliferative activity against human SKOV3 cells assessed as reduction in cell viability incubated for 24 hrs by SRB assay; type: functional, cell-based; conditions: SK-OV-3, 24 h
A549 [6] = experiment: Antiproliferative activity against human A549 cells assessed as reduction in cell viability incubated for 24 hrs by SRB assay; type: functional, cell-based; conditions: A549, 24 h
SK-MEL-2 = experiment: Antiproliferative activity against human SK-MEL-2 cells assessed as reduction in cell viability incubated for 24 hrs by SRB assay; type: functional, cell-based; conditions: SK-MEL-2, 24 h
MCF7 [7] = experiment: Antiproliferative activity against human MCF7 cells assessed as reduction in cell viability incubated for 24 hrs by SRB assay; type: functional, cell-based; conditions: MCF7, 24 h

IC50 (COLO 205): 120 nM
Activity [1]: 107.41%
IC50 (HCT-116): 150 nM
SMILES: COc1cc2c(c(OC)c1OC)-c1ccc(=N)c(O)cc1[C@@H](NC(C)=O)CC2

IC50 (COLO 205): 430 nM
Activity [1]: 95.38%
IC50 (HCT-116): 800 nM
SMILES: CCN(CC)c1ccc2c(cc1=O)[C@@H](NC(C)=O)CCc1cc(OC)c(OC)c(OC)c1-2

IC50 (MDA-MB-231): 704 nM
IC50 (DLD-1): 71.8 nM
IC50 (LoVo): 56.1 nM
IC50 (MCF7 [2]): 764 nM
SMILES: CCCSc1ccc2c(cc1=O)[C@@H](NC(C)=O)CCc1cc(OC)c(OC)c(OC)c1-2

IC50 (MDA-MB-231): 148 nM
IC50 (DLD-1): 51.2 nM
IC50 (LoVo): 19.5 nM
IC50 (MCF7 [2]): 56.1 nM
SMILES: CCSc1ccc2c(cc1=O)[C@@H](NC(C)=O)CCc1cc(OC)c(OC)c(OC)c1-2

IC50 (MDA-MB-231): 1770 nM
IC50 (DLD-1): 317 nM
IC50 (LoVo): 438 nM
IC50 (MCF7 [2]): 874 nM
SMILES: CCCCSc1ccc2c(cc1=O)[C@@H](NC(C)=O)CCc1cc(OC)c(OC)c(OC)c1-2

IC50 (MDA-MB-231): 1100 nM
IC50 (DLD-1): 177 nM
IC50 (LoVo): 150 nM
IC50 (MCF7 [2]): 564 nM
SMILES: COc1cc2c(c(OC)c1OC)-c1ccc(SC(C)C)c(=O)cc1[C@@H](NC(C)=O)CC2

IC50 (Bel-7402): 13 nM
IC50 (A2780): 10 nM
IC50 (A549 [4]): 12 nM
IC50 (MCF7 [5]): 8 nM
SMILES: CNc1ccc2c(cc1=O)[C@@H](NC(=O)CCC(=O)OCCCCO[N+](=O)[O-])CCc1cc(OC)c(OC)c(OC)c1-2

IC50 (Bel-7402): 85 nM
IC50 (A2780): 99 nM
IC50 (A549 [4]): 88 nM
IC50 (MCF7 [5]): 135 nM
SMILES: CNc1ccc2c(cc1=O)[C@@H](NC(=O)CCC(=O)OCCCO[N+](=O)[O-])CCc1cc(OC)c(OC)c(OC)c1-2

IC50 (COLO 205): 8000 nM
Activity [1]: 95.49%
IC50 (HCT-116): > 10000 nM
SMILES: CCOC(=O)C1CCN(c2ccc3c(cc2=O)[C@@H](NC(C)=O)CCc2cc(OC)c(OC)c(OC)c2-3)CC1

Second part, the molecule before the results:

SMILES: COc1c(CO)c2c(c(OC)c1OC)-c1ccc(OC)c(=O)cc1[C@@H](NC(C)=O)CC2
IC50 (KB 3-1): 260 nM
IC50 [3]: > 1000 nM

SMILES: COc1cc2c(c(OC)c1OC)-c1ccc(N3CCNCC3)c(=O)cc1[C@@H](NC(C)=O)CC2
IC50 (COLO 205): 8000 nM
Activity [1]: 95.52%
IC50 (HCT-116): > 10000 nM

SMILES: COc1cc2c(c(OC)c1OC)-c1ccc(SC)c(=O)cc1[C@@H](NC(=O)CCC1=C(C)c3cc4[nH]c(cc5nc(cc6[nH]c(cc1n3)c(CCC(=O)N[C@H]1CCc3cc(OC)c(OC)c(OC)c3-c3ccc(SC)c(=O)cc31)c6C)C(C(C)O)=C5C)c(C(C)O)c4C)CC2 (stereo not given in full)
IC50 (HCT-15): 4840 nM
IC50 (SK-OV-3): 2860 nM
IC50 (A549 [6]): 1680 nM
IC50 (SK-MEL-2): 2840 nM
IC50 (MCF7 [7]): 3220 nM

SMILES: COc1cc2c(c(OC)c1OC)-c1ccc(N3CCC(N)CC3)c(=O)cc1[C@@H](NC(C)=O)CC2
IC50 (COLO 205): 5000 nM
Activity [1]: 102.04%
IC50 (HCT-116): 10000 nM

SMILES: COc1cc2c(c(OC)c1OC)-c1ccc(N3CCCCC3)c(=O)cc1[C@@H](NC(C)=O)CC2
IC50 (COLO 205): 1800 nM
Activity [1]: 119.01%
IC50 (HCT-116): 3000 nM

SMILES: COc1cc2c(c(OC)c1OC)-c1ccc(N3CCCC3)c(=O)cc1[C@@H](NC(C)=O)CC2
IC50 (COLO 205): 240 nM
Activity [1]: 107.12%
IC50 (HCT-116): 300 nM

SMILES: COc1c(COC(C)=O)c2c(c(OC)c1OC)-c1ccc(OC)c(=O)cc1[C@@H](NC(C)=O)CC2
IC50 (KB 3-1): > 1000 nM
IC50 [3]: > 1000 nM

SMILES: CC/C=C\C/C=C\C/C=C\C/C=C\C/C=C\C/C=C\CCC(=O)N[C@H]1CCc2cc(OC)c(OC)c(OC)c2-c2ccc(SC)c(=O)cc21
IC50 (HCT-15): 392 nM
IC50 (SK-OV-3): 2630 nM
IC50 (A549 [6]): 917 nM
IC50 (SK-MEL-2): 2000 nM
IC50 (MCF7 [7]): 494 nM

SMILES: COc1cc2c(c(OC)c1OC)-c1ccc(Nc3ccc4c(c3)OCO4)c(=O)cc1[C@@H](NC(C)=O)CC2
IC50 (COLO 205): 3000 nM
Activity [1]: 102.66%
IC50 (HCT-116): 4000 nM

SMILES: COc1cc2c(c(OC)c1OC)-c1ccc(N3CCN(C(=O)OC(C)(C)C)CC3)c(=O)cc1[C@@H](NC(C)=O)CC2
IC50 (COLO 205): 3000 nM
Activity [1]: 90.94%
IC50 (HCT-116): 4000 nM
